Target: IRAK4 (Homo sapiens (Human), UniProt Q9NWZ3)
Test: In vitro IRAK4 phosphorylation activity assay
Assay type: biochemical
Settings: [γ-33P]-ATP, myelin basic protein substrate, 40 minutes at room temperature; categories
Description: In vitro IRAK4 analysis was performed using N-(1H-imidazol-2-yl)benzamide compounds according to the present invention. All compounds were prepared by dissolving in DMSO. N-(1H-imidazol-2-yl)benzamide compound according to the present invention and other elements for the reaction were added to an assay well. In the standard Kinase Profiler service the preincubation step between the N-(1H-imidazol-2-yl)benzamide compound and kinase was not performed before the reaction.
To the positive control well, all reactants except for the N-(1H-imidazol-2-yl)benzamide compound according to the present invention were added, and DMSO was added to remove the solvent effect. A known control inhibitor having the following structure was added to the blank wells to inhibit kinase activity and establish a base-line.
IRAK4 was incubated with 8 mM MOPS pH 7.0, 0.2 mM EDTA, 0.33 mg/mL myelin basic protein, 10 mM magnesium acetate and [γ-33P]-ATP (specific activity approx. 500 cpm/pmol, concentration as required). The reaction was initiated by the addition of the MgATP mix. After incubation for 40 minutes at room temperature, the reaction was stopped by the addition of 3% phosphoric acid solution. 10 μL of the reaction was then spotted onto a P30 filtermat and washed three times for 5 minutes in 75 mM phosphoric acid and once in methanol prior to drying and scintillation counting.
The results are shown in Table 26 below, where the phosphorylation activity of IC50 values for IRAK4 is shown in categories (A: <50 nM, B: 50-100 nM, C: >100 nM).

Chain of IRAK4 (Q9NWZ3 whole entry): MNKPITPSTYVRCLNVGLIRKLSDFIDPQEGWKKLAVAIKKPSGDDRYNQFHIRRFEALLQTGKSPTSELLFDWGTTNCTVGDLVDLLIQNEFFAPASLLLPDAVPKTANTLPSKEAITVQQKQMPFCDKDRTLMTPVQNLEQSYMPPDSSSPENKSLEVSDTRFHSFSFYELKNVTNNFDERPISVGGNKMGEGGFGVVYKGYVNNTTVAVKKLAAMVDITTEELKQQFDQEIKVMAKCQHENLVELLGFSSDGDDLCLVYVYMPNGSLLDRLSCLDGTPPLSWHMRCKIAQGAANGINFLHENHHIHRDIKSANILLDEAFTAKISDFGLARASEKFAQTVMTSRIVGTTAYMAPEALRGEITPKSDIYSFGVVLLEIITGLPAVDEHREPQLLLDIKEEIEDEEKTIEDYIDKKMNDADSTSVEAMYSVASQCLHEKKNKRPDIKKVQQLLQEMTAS

| SMILES | IC50 [nM] |
| --- | --- |
| CNC(=O)Cc1cn(-c2ccccc2)c(NC(=O)c2cccc(-c3ccncc3)c2)n1 [Example 265, N-(4-(2-(methylamino)-2-oxoethyl)-1-phenyl-1H-imidazol-2-yl)-3-(pyridin-4-yl)benzamide] | > 100 |
| Cn1cc(-c2cccc(C(=O)Nc3nc(CCCC(=O)NC4CC4)cn3-c3ccccc3)c2)cn1 [Example 141, N-(4-(4-(cyclopropylamino)-4-oxobutyl)-1-phenyl-1H-imidazol-2-yl)-3-(1-methyl-1H-pyrazol-4-yl)benzamide] | < 50 |
| O=C(CCCc1cn(-c2ccccc2)c(NC(=O)c2cccc(-c3cccc4cn[nH]c34)c2)n1)NC1CC1 [Example 248, N-(4-(4-(cyclopropylamino)-4-oxobutyl)-1-phenyl-1H-imidazol-2-yl)-3-(1H-indazol-7-yl)benzamide] | > 100 |
| O=C(Nc1nc(CCCCCNc2ccccc2)cn1-c1ccccc1)c1cccc(-c2cn[nH]c2)c1 [Example 117, N-(1-phenyl-4-(5-(phenylamino)pentyl)-1H-imidazol-2-yl)-3-(1H-pyrazol-4-yl)benzamide] | < 50 |
| CN(C)C1CCN(C(=O)CCCCCc2cn(-c3ccccc3)c(NC(=O)c3cccc(-c4ccc5scnc5c4)c3)n2)CC1 [Example 291, 3-(benzo[d]thiazol-5-yl)-N-(4-(6-(4-(dimethylamino)piperidin-1-yl)-6-oxohexyl)-1-phenyl-1H-imidazol-2-yl)benzamide] | > 100 |
| Cn1cc(-c2cccc(C(=O)Nc3nc(CCCCNC(=O)C4CC4)cn3-c3ccccc3)c2)cn1 [Example 227, N-(4-(4-(cyclopropanecarboxamido)butyl)-1-phenyl-1H-imidazol-2-yl)-3-(1-methyl-1H-pyrazol-4-yl)benzamide] | < 50 |
| O=C(CCCc1cn(-c2ccccc2)c(NC(=O)c2cccc(-c3cnn(CF)c3)c2)n1)NC1CC1 [Example 234, N-(4-(4-(cyclopropylamino)-4-oxobutyl)-1-phenyl-1H-imidazol-2-yl)-3-(1-(fluoromethyl)-1H-pyrazol-4-yl)benzamide] | < 50 |
| CNC(=O)CCCc1cn(-c2ccccc2)c(NC(=O)c2cccc(-c3ccc4[nH]ncc4c3)c2)n1 [Example 244, 3-(1H-indazol-5-yl)-N-(4-(4-(methylamino)-4-oxobutyl)-1-phenyl-1H-imidazol-2-yl)benzamide] | < 50 |
| Cn1cc(-c2cccc(C(=O)Nc3nc(CCCC(=O)N4CCC[C@H](C(=O)O)C4)cn3-c3ccccc3)c2)cn1 [Example 207, (S)-1-(4-(2-(3-(1-methyl-1H-pyrazol-4-yl)benzamido)-1-phenyl-1H-imidazol-4-yl)butanoyl)piperidine-3-carboxylic acid] | < 50 |
| CNC(=O)CCCc1cn(-c2ccccc2)c(NC(=O)c2cccc(-c3cnn(C)c3)c2)n1 [Example 139, 3-(1-methyl-1H-pyrazol-4-yl)-N-(4-(4-(methylamino)-4-oxobutyl)-1-phenyl-1H-imidazol-2-yl)benzamide] | < 50 |
| CNC(=O)Cc1cn(-c2ccccc2)c(NC(=O)c2ccccc2)n1 [Example 50, N-(4-(2-(methylamino)-2-oxoethyl)-1-phenyl-1H-imidazol-2-yl)benzamide] | > 100 |
| COC(=O)Cc1cn(-c2ccccc2)c(NC(=O)c2cccc(-c3cn[nH]c3)c2)n1 [Example 42, methyl 2-(2-(3-(1H-pyrazol-4-yl)benzamido)-1-phenyl-1H-imidazol-4-yl)acetate] | 50 to 100 |
| Cn1cc(-c2cccc(C(=O)Nc3nc(CCCC(=O)N4CCC(C#N)CC4)cn3-c3ccccc3)c2)cn1 [Example 168, N-(4-(4-(4-cyanopiperidin-1-yl)-4-oxobutyl)-1-phenyl-1H-imidazol-2-yl)-3-(1-methyl-TH-pyrazol-4-yl)benzamide] | < 50 |
| COC[C@@H]1CCCN1NC(=O)CCCc1cn(-c2ccccc2)c(NC(=O)c2cccc(-c3cn[nH]c3)c2)n1 [Example 53, (S)—N-(4-(4-((2-(methoxymethyl)pyrrolidin-1-yl)amino)-4-oxobutyl)-1-phenyl-1H-imidazol-2-yl)-3-(1H-pyrazol-4-yl)benzamide] | < 50 |
| O=C(CCCc1cn(-c2ccccc2)c(NC(=O)c2cccc(-c3cnn(C(F)(F)F)c3)c2)n1)NC1CC1 [Example 236, N-(4-(4-(cyclopropylamino)-4-oxobutyl)-1-phenyl-1H-imidazol-2-yl)-3-(1-(trifluoromethyl)-1H-pyrazol-4-yl)benzamide] | < 50 |
| Cn1cc(-c2cccc(C(=O)Nc3nc(CCCC(=O)Nc4cc[nH]n4)cn3-c3ccccc3)c2)cn1 [Example 217, N-(4-(4-((1H-pyrazol-3-yl)amino)-4-oxobutyl)-1-phenyl-1H-imidazol-2-yl)-3-(1-methyl-1H-pyrazol-4-yl)benzamide] | < 50 |
| Cn1cc(-c2cccc(C(=O)Nc3nc(CCCC(=O)NCCO)cn3-c3ccccc3)c2)cn1 [Example 164, N-(4-(4-((2-hydroxyethyl)amino)-4-oxobutyl)-1-phenyl-1H-imidazol-2-yl)-3-(1-methyl-1H-pyrazol-4-yl)benzamide] | < 50 |
| Cn1cc(-c2cccc(C(=O)Nc3nc(CCCC(=O)N4CCC(O)CC4)cn3-c3ccccc3)c2)cn1 [Example 169, N-(4-(4-(4-hydroxypiperidin-1-yl)-4-oxobutyl)-1-phenyl-1H-imidazol-2-yl)-3-(1-methyl-1H-pyrazol-4-yl)benzamide] | < 50 |
| Cn1cc(-c2cccc(C(=O)Nc3nc(CCCC(=O)N4CCN(C(C)(C)C)CC4)cn3-c3ccccc3)c2)cn1 [Example 181, N-(4-(4-(4-(tert-butyl)piperazin-1-yl)-4-oxobutyl)-1-phenyl-1H-imidazol-2-yl)-3-(1-methyl-1H-pyrazol-4-yl)benzamide] | < 50 |
| Cn1cc(-c2cccc(C(=O)Nc3nc(CCCCCCN4CCCCC4)cn3-c3ccccc3)c2)cn1 [Example 220, 3-(1-methyl-1H-pyrazol-4-yl)-N-(1-phenyl-4-(6-(piperidin-1-yl)hexyl)-1H-imidazol-2-yl)benzamide] | < 50 |

Second part, the compound after the results:

| IC50 [nM] | SMILES |
| --- | --- |
| < 50 | O=C(Nc1nc(CCCCCN2CCCCC2)cn1-c1ccccc1)c1cccc(-c2cn[nH]c2)c1 [Example 118, N-(1-phenyl-4-(5-(piperidin-1-yl)pentyl)-1H-imidazol-2-yl)-3-(1H-pyrazol-4-yl)benzamide] |
| < 50 | CC1(C)CCN(C(=O)CCc2cn(-c3ccccc3)c(NC(=O)c3cccc(-c4cn[nH]c4)c3)n2)CC1 [Example 35, N-(4-(3-(4,4-dimethylpiperidin-1-yl)-3-oxopropyl)-1-phenyl-1H-imidazol-2-yl)-3-(1H-pyrazol-4-yl)benzamide] |
| < 50 | CN1CCN(C(=O)CCCc2cn(-c3ccccc3)c(NC(=O)c3cccc(-c4cn[nH]c4F)c3)n2)CC1 [Example 230, 3-(5-fluoro-1H-pyrazol-4-yl)-N-(4-(4-(4-methylpiperazin-1-yl)-4-oxobutyl)-1-phenyl-1H-imidazol-2-yl)benzamide] |
| < 50 | O=C(CCCc1cn(-c2ccccc2)c(NC(=O)c2cccc(-c3cn[nH]c3)c2)n1)Nc1ccccc1F [Example 65, N-(4-(4-((2-fluorophenyl)amino)-4-oxobutyl)-1-phenyl-1H-imidazol-2-yl)-3-(1H-pyrazol-4-yl)benzamide] |
| < 50 | O=C(Nc1nc(CCCCCN2CCOCC2)cn1-c1ccccc1)c1cccc(-c2cn[nH]c2)c1 [Example 119, N-(4-(5-morpholinopentyl)-1-phenyl-1H-imidazol-2-yl)-3-(1H-pyrazol-4-yl)benzamide] |
| > 100 | O=C(Nc1nc(CCC(=O)N2CCN(Cc3ccc(OC(F)(F)F)cc3)CC2)cn1-c1ccccc1)c1cccc(-c2cn[nH]c2)c1 [Example 14, N-(4-(3-oxo-3-(4-(4-(trifluoromethoxy)benzyl)piperazin-1-yl)propyl)-1-phenyl-1H-imidazol-2-yl)-3-(1H-pyrazol-4-yl)benzamide] |
| < 50 | O=C(Nc1nc(CCCCN2CCSCC2)cn1-c1ccccc1)c1cccc(-c2cn[nH]c2)c1 [Example 115, N-(1-phenyl-4-(4-thiomorpholinobutyl)-1H-imidazol-2-yl)-3-(1H-pyrazol-4-yl)benzamide] |
| < 50 | O=C(Nc1nc(CCCC(=O)N2CCCCC2)cn1-c1ccccc1)c1cccc(-c2cn[nH]c2)c1 [Example 59, N-(4-(4-oxo-4-(piperidin-1-yl)butyl)-1-phenyl-1H-imidazol-2-yl)-3-(1H-pyrazol-4-yl)benzamide] |
| < 50 | C[C@H]1CCCCN1C(=O)CCCc1cn(-c2ccccc2)c(NC(=O)c2cccc(-c3cn[nH]c3)c2)n1 [Example 62, (S)—N-(4-(4-(2-methylpiperidin-1-yl)-4-oxobutyl)-1-phenyl-1H-imidazol-2-yl)-3-(1H-pyrazol-4-yl)benzamide] |
| < 50 | Nc1ccc(-c2cccc(C(=O)Nc3nc(CCCC(=O)N4CCCCC4)cn3-c3ccccc3)c2)cn1 [Example 273, 3-(6-aminopyridin-3-yl)-N-(4-(4-oxo-4-(piperidin-1-yl)butyl)-1-phenyl-1H-imidazol-2-yl)benzamide] |
| < 50 | O=C(Nc1nc(CCCNc2ccccc2)cn1-c1ccccc1)c1cccc(-c2cn[nH]c2)c1 [Example 109, N-(1-phenyl-4-(3-(phenylamino)propyl)-1H-imidazol-2-yl)-3-(1H-pyrazol-4-yl)benzamide] |

Reference: patent US12534452B2, “N-(1H-imidazol-2-yl)benzamide compound and pharmaceutical composition comprising the same as active ingredient” (KAINOS MEDICINE, INC., priority 2019, dated 2026)
